Source: PMC11345841, “Exploring 2-Sulfonylpyrimidine Warheads as Acrylamide Surrogates for Targeted Covalent Inhibition: A BTK Story” (Journal of Medicinal Chemistry, 2024)
Where a chain is given by its changes, count along the chain named. Read-outs that look alike come from different tables or passages of the source.

How the values were obtained:
Assay in all cases: KINOMEscan ScanTK
Type in all cases: binding
ERBB4 = molecular target: T1, ERBB4 (Homo sapiens, UniProt Q15303)
T1 construct: purchased Eurofins DiscoverX KINOMEscan (scanTK)
T1 sequence (Q15303 26-1308): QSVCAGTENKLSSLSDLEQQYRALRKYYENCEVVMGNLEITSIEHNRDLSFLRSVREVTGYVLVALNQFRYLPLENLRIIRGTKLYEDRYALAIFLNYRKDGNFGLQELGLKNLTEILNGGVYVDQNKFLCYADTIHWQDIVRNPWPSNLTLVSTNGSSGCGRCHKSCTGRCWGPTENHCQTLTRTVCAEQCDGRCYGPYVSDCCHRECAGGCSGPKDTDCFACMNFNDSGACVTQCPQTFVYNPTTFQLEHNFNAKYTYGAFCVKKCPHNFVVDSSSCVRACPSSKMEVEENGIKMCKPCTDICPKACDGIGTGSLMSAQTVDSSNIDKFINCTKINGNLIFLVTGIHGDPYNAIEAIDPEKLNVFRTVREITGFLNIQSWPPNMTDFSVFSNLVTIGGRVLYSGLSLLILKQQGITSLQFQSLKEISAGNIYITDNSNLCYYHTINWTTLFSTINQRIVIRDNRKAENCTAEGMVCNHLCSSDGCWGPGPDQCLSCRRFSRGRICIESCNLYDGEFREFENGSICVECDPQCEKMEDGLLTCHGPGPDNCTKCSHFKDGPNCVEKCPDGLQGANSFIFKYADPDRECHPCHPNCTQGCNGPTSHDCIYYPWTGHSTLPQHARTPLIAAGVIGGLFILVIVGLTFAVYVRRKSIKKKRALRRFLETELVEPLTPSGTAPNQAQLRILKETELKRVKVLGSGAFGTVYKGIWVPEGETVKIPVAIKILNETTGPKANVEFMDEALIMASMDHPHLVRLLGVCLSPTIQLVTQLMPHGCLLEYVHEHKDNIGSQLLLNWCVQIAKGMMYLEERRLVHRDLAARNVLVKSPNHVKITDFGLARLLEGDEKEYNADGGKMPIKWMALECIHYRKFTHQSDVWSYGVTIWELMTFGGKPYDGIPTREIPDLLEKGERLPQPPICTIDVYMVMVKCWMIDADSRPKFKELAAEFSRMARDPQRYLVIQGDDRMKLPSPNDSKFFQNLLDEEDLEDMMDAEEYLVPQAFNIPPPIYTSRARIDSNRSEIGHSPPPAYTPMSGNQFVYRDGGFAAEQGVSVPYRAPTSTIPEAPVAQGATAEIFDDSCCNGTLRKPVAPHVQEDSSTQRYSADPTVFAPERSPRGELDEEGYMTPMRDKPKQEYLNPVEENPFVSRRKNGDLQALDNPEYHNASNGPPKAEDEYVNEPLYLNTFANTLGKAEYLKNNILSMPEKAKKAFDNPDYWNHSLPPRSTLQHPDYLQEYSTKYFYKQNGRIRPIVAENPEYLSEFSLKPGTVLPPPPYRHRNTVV

FGFR2 = molecular target: T2, FGFR2 (Homo sapiens, UniProt P21802)
T2 construct: purchased Eurofins DiscoverX KINOMEscan (scanTK)
T2 sequence (P21802 22-821): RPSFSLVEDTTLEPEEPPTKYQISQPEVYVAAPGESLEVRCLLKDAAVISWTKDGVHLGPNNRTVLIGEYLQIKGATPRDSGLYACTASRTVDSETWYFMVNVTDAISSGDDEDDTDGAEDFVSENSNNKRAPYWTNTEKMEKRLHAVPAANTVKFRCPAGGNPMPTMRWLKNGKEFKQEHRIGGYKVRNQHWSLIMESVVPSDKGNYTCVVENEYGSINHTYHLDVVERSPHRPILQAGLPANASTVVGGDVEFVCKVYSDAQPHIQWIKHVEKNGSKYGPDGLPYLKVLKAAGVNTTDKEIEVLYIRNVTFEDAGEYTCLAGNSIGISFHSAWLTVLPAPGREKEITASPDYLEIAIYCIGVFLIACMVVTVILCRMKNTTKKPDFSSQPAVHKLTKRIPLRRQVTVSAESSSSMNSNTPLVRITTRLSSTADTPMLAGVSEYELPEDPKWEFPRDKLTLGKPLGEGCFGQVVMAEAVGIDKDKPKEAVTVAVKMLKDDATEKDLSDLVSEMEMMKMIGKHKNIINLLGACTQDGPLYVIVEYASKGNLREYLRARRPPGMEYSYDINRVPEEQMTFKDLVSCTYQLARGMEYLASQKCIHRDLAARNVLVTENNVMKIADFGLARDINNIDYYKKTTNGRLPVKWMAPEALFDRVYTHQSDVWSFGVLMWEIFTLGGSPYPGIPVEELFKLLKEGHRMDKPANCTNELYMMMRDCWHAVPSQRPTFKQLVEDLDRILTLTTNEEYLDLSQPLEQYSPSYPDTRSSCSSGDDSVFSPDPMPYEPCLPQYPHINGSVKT

FLT3(D835V) = molecular target: T3, FLT3(D835V) (Homo sapiens, UniProt P36888, D835V)
T3 construct: purchased Eurofins DiscoverX KINOMEscan (scanTK)
T3 sequence (P36888 27-993 D835V): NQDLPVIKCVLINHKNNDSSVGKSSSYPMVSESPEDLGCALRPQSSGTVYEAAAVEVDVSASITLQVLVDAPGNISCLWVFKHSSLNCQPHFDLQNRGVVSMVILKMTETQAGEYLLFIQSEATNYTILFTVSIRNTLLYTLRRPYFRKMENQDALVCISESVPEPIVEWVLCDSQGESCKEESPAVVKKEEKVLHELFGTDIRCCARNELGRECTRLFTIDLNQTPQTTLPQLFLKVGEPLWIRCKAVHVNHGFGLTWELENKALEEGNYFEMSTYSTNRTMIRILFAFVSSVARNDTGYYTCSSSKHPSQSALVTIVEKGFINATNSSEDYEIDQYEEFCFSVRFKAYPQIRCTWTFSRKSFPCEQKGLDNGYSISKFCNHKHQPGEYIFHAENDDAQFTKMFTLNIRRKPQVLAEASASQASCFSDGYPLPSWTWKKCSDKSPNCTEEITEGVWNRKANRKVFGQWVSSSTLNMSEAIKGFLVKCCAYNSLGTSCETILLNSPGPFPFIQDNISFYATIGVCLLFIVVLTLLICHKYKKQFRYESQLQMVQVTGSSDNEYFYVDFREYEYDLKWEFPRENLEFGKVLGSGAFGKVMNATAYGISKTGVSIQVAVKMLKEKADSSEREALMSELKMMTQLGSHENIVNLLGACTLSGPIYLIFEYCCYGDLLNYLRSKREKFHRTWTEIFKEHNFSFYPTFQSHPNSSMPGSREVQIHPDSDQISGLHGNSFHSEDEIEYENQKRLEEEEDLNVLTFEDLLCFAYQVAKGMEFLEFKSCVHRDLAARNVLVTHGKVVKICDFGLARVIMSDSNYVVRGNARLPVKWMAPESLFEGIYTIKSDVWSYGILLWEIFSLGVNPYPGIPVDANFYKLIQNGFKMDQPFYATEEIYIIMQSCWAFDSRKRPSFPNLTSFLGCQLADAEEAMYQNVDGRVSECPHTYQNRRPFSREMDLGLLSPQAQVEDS

FLT3(D835Y) = molecular target: T4, FLT3(D835Y) (Homo sapiens, UniProt P36888, D835Y)
T4 construct: purchased Eurofins DiscoverX KINOMEscan (scanTK)
T4 sequence (P36888 27-993 D835Y): T3 sequence (P36888 27-993 D835V) with V809Y

KIT(V559D,V654A) = molecular target: T5, KIT(V559D,V654A) (Homo sapiens, UniProt P10721, V559D/V654A)
T5 construct: purchased Eurofins DiscoverX KINOMEscan (scanTK)
T5 sequence (P10721 26-976 V559D/V654A): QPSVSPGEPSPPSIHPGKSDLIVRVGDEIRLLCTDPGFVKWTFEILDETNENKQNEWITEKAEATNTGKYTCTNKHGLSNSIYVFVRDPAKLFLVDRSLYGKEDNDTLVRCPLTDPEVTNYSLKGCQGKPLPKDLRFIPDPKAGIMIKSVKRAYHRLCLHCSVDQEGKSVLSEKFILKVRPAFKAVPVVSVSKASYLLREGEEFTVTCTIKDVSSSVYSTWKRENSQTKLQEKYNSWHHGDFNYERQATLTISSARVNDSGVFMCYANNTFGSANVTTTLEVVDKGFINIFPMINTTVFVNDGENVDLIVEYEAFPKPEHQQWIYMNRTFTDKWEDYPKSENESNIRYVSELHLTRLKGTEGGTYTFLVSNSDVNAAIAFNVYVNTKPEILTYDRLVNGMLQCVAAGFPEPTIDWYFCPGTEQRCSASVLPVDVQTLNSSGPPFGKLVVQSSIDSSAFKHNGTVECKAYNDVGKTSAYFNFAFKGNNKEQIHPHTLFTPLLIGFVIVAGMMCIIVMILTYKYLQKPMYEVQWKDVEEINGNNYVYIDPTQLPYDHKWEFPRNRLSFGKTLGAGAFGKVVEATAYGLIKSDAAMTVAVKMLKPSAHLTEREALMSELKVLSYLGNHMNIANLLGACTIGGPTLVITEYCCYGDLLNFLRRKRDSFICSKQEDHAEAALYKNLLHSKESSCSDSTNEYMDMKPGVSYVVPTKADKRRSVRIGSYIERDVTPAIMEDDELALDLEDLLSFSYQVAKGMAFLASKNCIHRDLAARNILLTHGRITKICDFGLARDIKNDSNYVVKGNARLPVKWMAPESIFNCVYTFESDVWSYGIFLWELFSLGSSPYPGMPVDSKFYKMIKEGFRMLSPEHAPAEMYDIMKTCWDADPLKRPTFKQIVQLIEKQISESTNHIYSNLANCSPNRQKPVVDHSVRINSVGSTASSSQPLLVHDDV

TXK = molecular target: T6, TXK (Homo sapiens, UniProt P42681)
T6 construct: purchased Eurofins DiscoverX KINOMEscan (scanTK)
T6 sequence (P42681 1-527): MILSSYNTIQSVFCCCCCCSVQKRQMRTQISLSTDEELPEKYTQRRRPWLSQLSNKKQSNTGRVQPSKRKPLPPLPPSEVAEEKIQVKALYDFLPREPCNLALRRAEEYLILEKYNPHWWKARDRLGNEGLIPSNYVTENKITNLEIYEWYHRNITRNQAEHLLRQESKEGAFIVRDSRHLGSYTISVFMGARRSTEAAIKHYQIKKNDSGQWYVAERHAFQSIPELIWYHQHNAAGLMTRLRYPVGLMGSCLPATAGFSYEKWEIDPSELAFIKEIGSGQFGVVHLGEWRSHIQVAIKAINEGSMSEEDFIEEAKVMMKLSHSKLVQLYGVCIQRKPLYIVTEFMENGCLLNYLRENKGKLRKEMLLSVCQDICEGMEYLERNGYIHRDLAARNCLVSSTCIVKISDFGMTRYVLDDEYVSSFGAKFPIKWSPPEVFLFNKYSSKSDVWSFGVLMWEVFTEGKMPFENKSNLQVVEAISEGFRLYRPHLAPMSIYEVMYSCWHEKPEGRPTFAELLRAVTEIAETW

Compound | difference in %Control versus compound Ib at 1 µM (ERBB4; @1000nM) [%] | remaining binding at 1 µM (ERBB4; @1000nM, read-out: %Control) [%] | remaining binding at 1 µM (ERBB4; read-out: %Control @1000nM) [%] | difference in %Control vs compound Ib at 1 µM (FGFR2; @1000nM) [%] | remaining binding at 1 µM (FGFR2; @1000nM, read-out: %Control) [%] | remaining binding at 1 µM (FGFR2; read-out: %Control @1000nM) [%] | difference in %Control versus compound Ib at 1 µM (FLT3(D835V); @1000nM) [%] | remaining binding at 1 µM (FLT3(D835V); @1000nM, read-out: %Control) [%] | remaining binding at 1 µM (FLT3(D835V); read-out: %Control @1000nM) [%] | difference in %Control versus compound Ib at 1 µM (FLT3(D835Y); @1000nM) [%] | remaining binding at 1 µM (FLT3(D835Y); @1000nM, read-out: %Control) [%] | remaining binding at 1 µM (FLT3(D835Y); read-out: %Control @1000nM) [%] | remaining binding at 1 µM (KIT(V559D,V654A); @1000nM, read-out: %Control) [%] | remaining binding at 1 µM (KIT(V559D,V654A); read-out: %Control @1000nM) [%] | remaining binding at 1 µM (TXK; @1000nM, read-out: %Control) [%] | remaining binding at 1 µM (TXK; read-out: %Control @1000nM) [%]
CNC(=O)c1cnc(S(C)(=O)=O)nc1N1CCCC(n2nc(-c3ccc(Oc4ccccc4)cc3)c3c(N)ncnc32)C1 (stereo not shown) [Compound 8d, 4-(3-(4-Amino-3-(4-phenoxyphenyl)-1H-pyrazolo[3,4-d]pyrimidin-1-yl)piperidin-1-yl)-N-methyl-2-(methylsulfonyl)pyrimidine-5-carboxamide] | 0.05 | 0.1 | 0.1 | 35 | 74 | 74 | 13.1 | 23 | 23 | 10 | 59 | 59 | 94 | 94 | 10 | 10
CCOC(=O)c1cnc(S(C)(=O)=O)nc1N1CCC[C@@H](n2nc(-c3ccc(Oc4ccccc4)cc3)c3c(N)ncnc32)C1 [Compound 8c, Ethyl (R)-4-(3-(4-Amino-3-(4-phenoxyphenyl)-1H-pyrazolo[3,4-d]pyrimidin-1-yl)piperidin-1-yl)-2-(methylsulfonyl)pyrimidine-5-carboxylate] | 5.15 | 5.2 | 5.2 | 41 | 80 | 80 | 46.1 | 56 | 56 | 50 | 99 | 99 | 97 | 97 | 12 | 12
Cc1cnc(S(C)(=O)=O)nc1N1CCCC(n2nc(-c3ccc(Oc4ccccc4)cc3)c3c(N)ncnc32)C1 (stereo not shown) [Compound 8a, 1-(1-(5-Methyl-2-(methylsulfonyl)pyrimidin-4-yl)piperidin-3-yl)-3-(4-phenoxyphenyl)-1H-pyrazolo[3,4-d]pyrimidin-4-amine] | 64 | 64 | 64 | 46 | 85 | 85 | 20.1 | 30 | 30 | -4 | 45 | 45 | 90 | 90 | 14 | 14
C=CC(=O)N1CCC[C@@H](n2nc(-c3ccc(Oc4ccccc4)cc3)c3c(N)ncnc32)C1 [Compound 1g, Ibrutinib, reference compound] | – | 0.05 | 0.05 | – | 39 | 39 | – | – | – | – | – | – | – | – | 8.7 | 8.7
COC(=O)c1cnc(S(C)(=O)=O)nc1N1CCCC(n2nc(-c3ccc(Oc4ccccc4)cc3)c3c(N)ncnc32)C1 (stereo not shown) [Compound 8b, Methyl 4-(3-(4-Amino-3-(4-phenoxyphenyl)-1H-pyrazolo[3,4-d]pyrimidin-1-yl)piperidin-1-yl)-2-(methylsulfonyl)pyrimidine-5-carboxylate] | 0.5 | 0.55 | 0.55 | 47 | 86 | 86 | 38.1 | 48 | 48 | 18 | 67 | 67 | 86 | 86 | 11 | 11
